According to patent US20240058387A1, “CULTURE MEDIUM COMPOSITION FOR AMPLIFYING AND MAINTAINING SELF-RENEWAL CAPACITY AND DIFFERENTIATION POTENTIAL OF HSCS AND APPLICATION THEREOF” (EDIGENE (GUANGZHOU) INC., priority 2020, published 2024):

Assays:
[1] = test system: mobilized peripheral blood-derived CD34+ cells; assay: Cell counting: absolute number of marker-positive cells, comparison with UM171 and SR1; format: cell-based, human; settings: FIG. 5B, 8 days
Procedure: According to the solubility and required solvent indicated in the instructions of the small molecule inhibitor (see Table 1 for the Cat. number of the small molecule inhibitor), the preparation of the small molecule inhibitor stock solution was carried out. Next, the hematopoietic stem cell medium was prepared: SFEM II medium (stem cell, Cat. number: 09655)+50 ng/ml growth factor Flt-3L (PeProtech, Cat. number: 300-100UG)+50 ng/ml growth factor SCF (PeProtech, Cat. number): 300-07-100UG)+50 ng/ml growth factor TPO (PeProtech, Cat. number: 300-18-100UG)+10 ng/ml interleukin IL-6 (PeProtech, Cat. number: 200-06-20UG)+1% bispecific antibody (HyClone, Cat. No.: sv30010). According to the set concentration gradient of the small molecule inhibitor, the stock solution and the basal medium were used to prepare the medium containing different concentrations of the small molecule inhibitor.
First, the prepared medium was added to a 24-well plate (Corning, Cat. number: 3473), 950 μl per well, and placing it in a carbon dioxide incubator (Thermo, model: 3111) to preheat; resuspending the spare umbilical cord Blood-derived HSCs of Example 1 with SFEM 11+50 ng/ml Flt-3L+50 ng/ml SCF+50 ng/ml TPO+10 ng/ml IL-6+1% bispecific antibody, calculating the medium volume to be added according to 50 μl cell suspension per well and 2*10^5/m1 cell density per well. For example, when the final volume of the cell culture solution per well was 1 ml, the total number of cells per well was 2*10^5 cells calculated according to the cell density per well, and the density of the […] of cell suspension supplemented to each well is 4*10^6/ml. The density of the spare HSCs of Example 1 was adjusted to the calculated density of the cell suspension, and adding it; taking out the preheated medium from the incubator, adding 50 μl of the cell suspension to each well, and after mixing, using the microscope (OLYMPUS, model: CKX53) to observe the cells state, and then putting it into an incubator for culturing.
On the mobilized peripheral blood-derived CD34+ cells sorted in Example 1, the screened-out inhibitor AG1296 and literature-reported (Fares I, et al. Science. 2014; Boitano A E, et al. Science. 2010) inhibitors UM171 and SR1 were compared in the same way as Example 2. Eight days after the induction of the small molecule inhibitor, the expression of LT-HSCs cell surface markers (CD34+CD45+CD90+CD45RA−CD38−) was detected by flow cytometry using the same method as in Example 3. After 8 days of culture, 20 μL of cell suspension was taken into a cell counter (Nexcelom, model: Cellometer K2) and counted, and the absolute numbers of the final CD34+ cells and LT-HSCs on […] were calculated (absolute number of cells=total number of cells*stemness ratio).

[2] = test system: umbilical cord blood-derived CD34+ cells; assay: In vivo transplantation of in vitro cultured CD34+ cells into irradiated immunodeficient NPG mice; settings: FIG. 8A, cells cultured with 1 μM AG1296 (SR1 5 μM), week 18 after transplantation
Procedure: On the umbilical cord blood-derived CD34+ cells sorted in Example 1, the effects of the screened small molecule inhibitor AG1296 and the inhibitor SR1 reported in the literature on the in vivo hematopoietic system reconstitution ability was compared.
Preparation of cell medium: SFEM II+100 ng/ml Flt-3L+100 ng/ml SCF+100 ng/ml TPO+20 ng/ml IL-6+1% bispecific antibody. Cat. numbers of the medium, growth factor, bispecific antibody, etc. were as described in Example 2. According to the groups set in Table 4, different small molecule inhibitors were added.
The prepared cell medium was added to a 24-well plate, 950 μl per well, and placing it in a carbon dioxide incubator to preheat; using SFEMII+100 ng/ml Flt-3L+100 ng/ml SCF+100 ng/ml TPO+20 ng/ml IL-6+1% bispecific antibody to resuspend the spare umbilical cord blood-derived HSCs of Example 1. The medium volume required to resuspend the cells was calculated according to 50 μl of cell suspension was added to each well, and 0.28*10^5/ml cell density per well was; taking out the preheated medium from the incubator, adding 50 μl of resuspended cell suspension to each well, mixing well, observing the cell state under a microscope, and then putting them into the incubator for culture. […]
The proportions of human CD45, human CD19, human CD3, human CD33 and human CD56 in mouse bone marrow cells were detected by flow cytometry. […]

## COc1cc2ncc(-c3ccccc3)nc2cc1OC [AG1296]
[1]; 1 μM
  absolute number of CD34+CD90+, and CD34+CD90+CD45RA- cells: showed superiority
  effect on cell proliferation: could inhibit cell proliferation
[1]; AG1296 at 1 μM, UM171 concentration not given
  absolute number of CD34+ cells: not significantly better than other groups
[2]
  bone marrow transplantation efficiency (proportion of human CD45+ cells in mouse bone marrow cells): significantly higher than that of the Mock group and the SR1 group
